# In patent publication US20140357713A1, “ANTIMICROBIAL COMPOUNDS AND METHODS OF USE” (NexMed Holdings, Inc., priority 2012, published 2014):
# Where two headings read alike, the source gives them in different places.
# How the values were obtained:
# [1] = system: Escherichia coli (ATCC 25922); test: Time kill study, Example 33 (0 to 5 min); format: cell-based; settings: 1×MIC
# In short: (§1)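 CLSI time-kill: suspension + compound solution, 1:1 by volume. Sampled 0 min, 30 sec, 1 min, 5 mins; diluted in test medium, streaked on agar. Colonies counted at 24 to 48 hrs; read-out Log10 CFU/mL.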
# [2] = system: Pseudomonas aeruginosa (ATCC 27853); test: Time kill study, Example 33 (0 to 5 min); format: cell-based; settings: 1×MIC
# In short: as §1
# [3] = system: Staphylococcus aureus (ATCC 29213); test: Time kill study, Example 33 (0 to 5 min); format: cell-based; settings: 1×MIC
# In short: as §1
# [4] = system: Candida albicans (ATCC 90029); test: Time kill study, Example 33 (0 to 5 min); format: cell-based; settings: 1×MIC
# In short: as §1
# [5] = system: Aspergillus niger (CMCC 98003); test: Time kill study, Example 33 (0 to 5 min); format: cell-based; settings: 1×MIC
# Protocol: Thirty compounds were tested for antimicrobial activity using standard procedures and standard strains for both the minimum inhibitory concentration (MIC) assay and a time kill study. Both the MIC assay and the time kill study were performed according to Clinical and Laboratory Standards Institute (CLSI) guidelines. Three bacteria strains, Escherichia coli (ATCC 25922), Pseudomonas aeruginosa (ATCC 27853), Staphulococcus aureus (ATCC 29213), and two fungus strains, Candida albicans (ATCC 90029) and Aspergillus niger (CMCC 98003), were used in the experiments.
# The viable counts in Log10 CFU/mL at each time point were recorded.
# Time kill studies. Strain suspensions were prepared as described above for the MIC test, and strain suspensions and compound solutions were mixed in the same volume. Samples were removed at specified times including 0 min, 30 sec, 1 min and 5 mins, were diluted in the test medium and streaked on agar. Colonies were counted after 24 to 48 hrs of incubation.
# The MIC values for thirty compounds against Escherichia coli, Pseudomonas aeruginosa, Staphulococcus aureus, Candida albicans, and Aspergillus niger were recorded and are presented in Table 3 and Table 4.
# [6] = Solubility (Sol., Table 1); format: physicochemical
# pH (Table 1) = format: physicochemical
# [7] = system: Aspergillus niger (CMCC 98003); test: Minimum inhibitory concentration (MIC) assay, Example 33; format: cell-based; settings: Aspergillus niger
# In short: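 Conidia gently probed from sporulating colonies into RPMI 1640, set to 0.09-0.13 at 530 nm, then diluted 1:50 and mixed 1:2 with 2-fold serially diluted compounds. Following CLSI guidelines, incubation was at 35 °C before the MIC was recorded.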
# Staphylococcus aureus = test: Extended time kill study, Example 34 (0 to 24 h); format: cell-based
# In short: (§2)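 Strain suspensions prepared as for MIC testing were mixed 1:1 with compound solution at higher multiples of MIC. Samples taken over 0 to 24 h were diluted in test medium and plated on agar, and colonies were counted after 24–48 h incubation.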
# Pseudomonas aeruginosa = test: Extended time kill study, Example 34 (0 to 24 h); format: cell-based
# In short: as §2
compound,measurement,setting,value
"CCCCCCCCCCCCOC(=O)C(C)NC.Cl (stereo not shown) [Nex-59, Dodecyl 2-(methylamino)propanoate hydrochloride]","Viable counts, Escherichia coli time kill study",[1]; 0.5 min,5.04 Log10 CFU/mL
same,"Viable counts, Escherichia coli time kill study",[1]; 1 min,5.11 Log10 CFU/mL
same,"Viable counts, Escherichia coli time kill study",[1]; 5 min,4.56 Log10 CFU/mL
same,"Viable counts, Escherichia coli time kill study",[1]; time 0,5.34 Log10 CFU/mL
same,"Viable counts, Pseudomonas aeruginosa time kill study",[2]; 0.5 min,5.26 Log10 CFU/mL
same,"Viable counts, Pseudomonas aeruginosa time kill study",[2]; 1 min,4.78 Log10 CFU/mL
same,"Viable counts, Pseudomonas aeruginosa time kill study",[2]; 5 min,<3.52 Log10 CFU/mL
same,"Viable counts, Pseudomonas aeruginosa time kill study",[2]; time 0,5.65 Log10 CFU/mL
same,"Viable counts, Staphylococcus aureus time kill study",[3]; 0.5 min,6.33 Log10 CFU/mL
same,"Viable counts, Staphylococcus aureus time kill study",[3]; 1 min,6.22 Log10 CFU/mL
same,"Viable counts, Staphylococcus aureus time kill study",[3]; 5 min,6.15 Log10 CFU/mL
same,"Viable counts, Staphylococcus aureus time kill study",[3]; time 0,6.33 Log10 CFU/mL
same,"Viable counts, Candida albicans time kill study",[4]; 0.5 min,5.18 Log10 CFU/mL
same,"Viable counts, Candida albicans time kill study",[4]; 1 min,5.32 Log10 CFU/mL
same,"Viable counts, Candida albicans time kill study",[4]; 5 min,5.23 Log10 CFU/mL
same,"Viable counts, Candida albicans time kill study",[4]; time 0,5.3 Log10 CFU/mL
same,"Viable counts, Aspergillus niger time kill study",[5]; 0.5 min,5.30 Log10 CFU/mL
same,"Viable counts, Aspergillus niger time kill study",[5]; 1 min,5.33 Log10 CFU/mL
same,"Viable counts, Aspergillus niger time kill study",[5]; 5 min,5.18 Log10 CFU/mL
same,"Viable counts, Aspergillus niger time kill study",[5]; time 0,5.27 Log10 CFU/mL
same,Sol.,[6],33%
same,pH,pH (Table 1),2.17
same,MIC,"[7]; CMCC98003, Table 19 summary, read-out: MIC",50 µg/mL
same,MIC,"[7]; CMCC98003, n = 1, read-out: MIC Aspergillus niger",50 µg/mL
same,MIC,"[7]; CMCC98003, n = 2, read-out: MIC Aspergillus niger",50 µg/mL
same,"Viable counts, Staphylococcus aureus time kill study","Staphylococcus aureus; 1 × MIC, 1 h",<3 Log10 CFU/mL
same,"Viable counts, Staphylococcus aureus time kill study","Staphylococcus aureus; 1 × MIC, 2 h",<3 Log10 CFU/mL
same,"Viable counts, Staphylococcus aureus time kill study","Staphylococcus aureus; 1 × MIC, 4 h",<3 Log10 CFU/mL
same,"Viable counts, Staphylococcus aureus time kill study","Staphylococcus aureus; 1 × MIC, 6 h",<3 Log10 CFU/mL
same,"Viable counts, Staphylococcus aureus time kill study","Staphylococcus aureus; 1 × MIC, 24 h",<1 Log10 CFU/mL
same,"Viable counts, Staphylococcus aureus time kill study","Staphylococcus aureus; 1×MIC, time 0",6.20 Log10 CFU/mL
same,"Viable counts, Staphylococcus aureus time kill study","Staphylococcus aureus; 2 × MIC, 1 h",<3 Log10 CFU/mL
same,"Viable counts, Staphylococcus aureus time kill study","Staphylococcus aureus; 2 × MIC, 2 h",<3 Log10 CFU/mL
same,"Viable counts, Staphylococcus aureus time kill study","Staphylococcus aureus; 2 × MIC, 4 h",<3 Log10 CFU/mL
same,"Viable counts, Staphylococcus aureus time kill study","Staphylococcus aureus; 2 × MIC, 6 h",<3 Log10 CFU/mL
same,"Viable counts, Staphylococcus aureus time kill study","Staphylococcus aureus; 2 × MIC, 24 h",<1 Log10 CFU/mL
same,"Viable counts, Staphylococcus aureus time kill study","Staphylococcus aureus; 2 × MIC, time 0",6.19 Log10 CFU/mL
same,"Viable counts, Staphylococcus aureus time kill study","Staphylococcus aureus; 4 × MIC, 1 h",<3 Log10 CFU/mL
same,"Viable counts, Staphylococcus aureus time kill study","Staphylococcus aureus; 4 × MIC, 2 h",<3 Log10 CFU/mL
same,"Viable counts, Staphylococcus aureus time kill study","Staphylococcus aureus; 4 × MIC, 4 h",<3 Log10 CFU/mL
same,"Viable counts, Staphylococcus aureus time kill study","Staphylococcus aureus; 4 × MIC, 6 h",<3 Log10 CFU/mL
same,"Viable counts, Staphylococcus aureus time kill study","Staphylococcus aureus; 4 × MIC, 24 h",<1 Log10 CFU/mL
same,"Viable counts, Staphylococcus aureus time kill study","Staphylococcus aureus; 4 × MIC, time 0",6.18 Log10 CFU/mL
same,"Viable counts, Pseudomonas aeruginosa time kill study","Pseudomonas aeruginosa; 1 × MIC, 1 h",<1 Log10 CFU/mL
same,"Viable counts, Pseudomonas aeruginosa time kill study","Pseudomonas aeruginosa; 1 × MIC, 2 h",<1 Log10 CFU/mL
same,"Viable counts, Pseudomonas aeruginosa time kill study","Pseudomonas aeruginosa; 1 × MIC, 4 h",<1 Log10 CFU/mL
same,"Viable counts, Pseudomonas aeruginosa time kill study","Pseudomonas aeruginosa; 1 × MIC, 6 h",<1 Log10 CFU/mL
same,"Viable counts, Pseudomonas aeruginosa time kill study","Pseudomonas aeruginosa; 1 × MIC, 24 h",<1 Log10 CFU/mL
same,"Viable counts, Pseudomonas aeruginosa time kill study","Pseudomonas aeruginosa; 1×MIC, time 0",5.18 Log10 CFU/mL
same,"Viable counts, Pseudomonas aeruginosa time kill study","Pseudomonas aeruginosa; 2 × MIC, 1 h",<1 Log10 CFU/mL
same,"Viable counts, Pseudomonas aeruginosa time kill study","Pseudomonas aeruginosa; 2 × MIC, 2 h",<1 Log10 CFU/mL
same,"Viable counts, Pseudomonas aeruginosa time kill study","Pseudomonas aeruginosa; 2 × MIC, 4 h",<1 Log10 CFU/mL
same,"Viable counts, Pseudomonas aeruginosa time kill study","Pseudomonas aeruginosa; 2 × MIC, 6 h",<1 Log10 CFU/mL
same,"Viable counts, Pseudomonas aeruginosa time kill study","Pseudomonas aeruginosa; 2 × MIC, 24 h",<1 Log10 CFU/mL
same,"Viable counts, Pseudomonas aeruginosa time kill study","Pseudomonas aeruginosa; 2 × MIC, time 0",5.16 Log10 CFU/mL
same,"Viable counts, Pseudomonas aeruginosa time kill study","Pseudomonas aeruginosa; 4 × MIC, 1 h",<1 Log10 CFU/mL
same,"Viable counts, Pseudomonas aeruginosa time kill study","Pseudomonas aeruginosa; 4 × MIC, 2 h",<1 Log10 CFU/mL
same,"Viable counts, Pseudomonas aeruginosa time kill study","Pseudomonas aeruginosa; 4 × MIC, 4 h",<1 Log10 CFU/mL
same,"Viable counts, Pseudomonas aeruginosa time kill study","Pseudomonas aeruginosa; 4 × MIC, 6 h",<1 Log10 CFU/mL
same,"Viable counts, Pseudomonas aeruginosa time kill study","Pseudomonas aeruginosa; 4 × MIC, 24 h",<1 Log10 CFU/mL
same,"Viable counts, Pseudomonas aeruginosa time kill study","Pseudomonas aeruginosa; 4 × MIC, time 0",5.21 Log10 CFU/mL
